Counter-ions that a name gives are not always drawn.

This note sets out measurements from US20260274814A1, “THIENYL COMPOUNDS FOR THE TREATMENT OF A CENTRAL NERVOUS SYSTEM DISEASE OR DISORDER” (Coreterra Therapeutics, Inc., priority 2023, published 2026).

This test concerns mice. The test can be described thus: Neuropharmacological Assay (SmartCube): automated behavioral signature of compound-treated mice compared with a database of reference drug classes. To be noted: for minimal effective dose: Mus musculus, ip, minimal effective dose: dose having 45% or more total activity in SmartCube, i.p., if only one dose tested, that dose is shown, read-out: MED; for AD / AG / AN / AP / AX / CE / HL / MS / PS / SH / UK: SmartCube class probability, 3.0 mg/kg i.p., 15 min before test. Type of test: in vivo. The method in brief:
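Compounds in N-methyl-2-pyrrolidone/polyethylene glycol/propylene glycol were given i.p. 15 min before testing, at 3 doses; values shown are for 3.0 mg/kg. Video-captured behaviour was matched by algorithm against reference drug classes, giving a probability per class. MED: lowest dose reaching ≥45% total activity.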

Turning to `Cc1sc(F)c2c1CC(N)CC2` (stereo not drawn) [Compound 203, 1-fluoro-3-methyl-4,5,6,7-tetrahydro-2-benzothiophen-5-amine hydrochloride], the minimal effective dose was found to be 3 mg/kg, the AD entry is recorded as “ND (^ <4%)”, the AG entry was “ND (^ <4%)” and the AN result is given as “ND (^ <4%)”. Moreover, the AP entry is on record as “ND (^ <4%)”, the AX entry is reported as “ND (^ <4%)”, the CE result is on record as “ND (^ <4%)” and the HL entry is given as “ND (^ <4%)”. Moreover, the MS result is recorded as “ND (^ <4%)”, the PS result is “ND (^ <4%)”, the SH result is “ND (^ <4%)” and the UK entry is reported as “+++ (≥49%)”.

In the case of `N#Cc1scc2c1CC(N)CC2` (stereo not drawn) [Compound 204, 6-amino-4,5,6,7-tetrahydro-2-benzothiophene-1-carbonitrile hydrochloride], the minimal effective dose came to 3 mg/kg, the AD entry is listed as “ND (^ <4%)”, the AG entry is listed as “ND (^ <4%)” and the AN entry was “ND (^ <4%)”. In addition, the AP entry was “++++ (≥74%)”, the AX result was “ND (^ <4%)”, the CE result was “ND (^ <4%)” and the HL result is on record as “ND (^ <4%)”. The MS entry is “ND (^ <4%)”, the PS result is “ND (^ <4%)”, the SH result was “ND (^ <4%)” and the UK entry is listed as “ND (^ <4%)”.

As for `NC1CCc2scc(C3CC3)c2C1` (stereo not drawn) [Compound 205, 3-cyclopropyl-4,5,6,7-tetrahydrobenzothiophen-5-amine hydrochloride], the minimal effective dose was over 3 mg/kg, the AD result was “ND (^ <4%)”, the AG result is recorded as “ND (^ <4%)” and the AN result was “ND (^ <4%)”. Also, the AP entry is recorded as “ND (^ <4%)”, the AX entry is listed as “ND (^ <4%)”, the CE result is reported as “ND (^ <4%)” and the HL entry is “ND (^ <4%)”. Further, the MS entry is “ND (^ <4%)”, the PS entry is “ND (^ <4%)”, the SH result is recorded as “ND (^ <4%)” and the UK entry is listed as “++ (≥24%)”.

Take `CNC1CCc2scc(C3CCC3)c2C1` (stereo not drawn) [Compound 206, 3-cyclobutyl-N-methyl-4,5,6,7-tetrahydrobenzothiophen-5-amine hydrochloride]: the minimal effective dose worked out at 3 mg/kg, the AD result is recorded as “ND (^ <4%)”, the AG entry is listed as “ND (^ <4%)” and the AN result is reported as “ND (^ <4%)”. For the same compound, the AP result is “ND (^ <4%)”, the AX result was “ND (^ <4%)”, the CE result is reported as “ND (^ <4%)” and the HL entry is “ND (^ <4%)”. Further, the MS entry is recorded as “ND (^ <4%)”, the PS entry is on record as “ND (^ <4%)”, the SH result is “ND (^ <4%)” and the UK result is “++ (≥24%)”.

Regarding `CCc1csc2c1CC(NC)CC2` (stereo not drawn) [Compound 207, 3-ethyl-N-methyl-4,5,6,7-tetrahydrobenzothiophen-5-amine hydrochloride], the minimal effective dose was over 3 mg/kg, the AD result was “ND (^ <4%)”, the AG result is given as “ND (^ <4%)” and the AN entry was “ND (^ <4%)”. Also, the AP entry is given as “ND (^ <4%)”, the AX result was “ND (^ <4%)”, the CE entry was “ND (^ <4%)” and the HL entry is recorded as “ND (^ <4%)”. Further, the MS result was “ND (^ <4%)”, the PS result is listed as “ND (^ <4%)”, the SH result is reported as “ND (^ <4%)” and the UK entry is given as “+ (≥4%)”.

Turning to `CCc1csc2c1CC(N)CC2` (stereo not drawn) [Compound 208, 3-ethyl-4,5,6,7-tetrahydrobenzothiophen-5-amine hydrochloride], the minimal effective dose was over 3 mg/kg, the AD result is listed as “ND (^ <4%)”, the AG result is recorded as “ND (^ <4%)” and the AN entry is listed as “ND (^ <4%)”. Besides, the AP result is “ND (^ <4%)”, the AX entry is “ND (^ <4%)”, the CE result is on record as “ND (^ <4%)” and the HL result is “ND (^ <4%)”. Besides, the MS entry was “ND (^ <4%)”, the PS result is reported as “ND (^ <4%)”, the SH entry is reported as “ND (^ <4%)” and the UK result is “+ (≥4%)”.

On to `NC1CCc2c(F)csc2C1` (stereo not drawn) [Compound 209, 3-fluoro-4,5,6,7-tetrahydrobenzothiophen-6-amine hydrochloride], for which the minimal effective dose was under 3 mg/kg, the AD result is listed as “++ (≥24%)”, the AG entry is reported as “ND (^ <4%)” and the AN result is reported as “ND (^ <4%)”. Also, the AP result was “+ (≥4%)”, the AX entry is recorded as “+++ (≥49%)”, the CE entry is listed as “+ (≥4%)” and the HL entry is recorded as “ND (^ <4%)”. Further, the MS entry is reported as “ND (^ <4%)”, the PS entry is “ND (^ <4%)”, the SH entry was “ND (^ <4%)” and the UK result is “ND (^ <4%)”.

Take `Cc1sc2c(c1F)CC(N)CC2` (stereo not drawn) [Compound 214, 3-fluoro-2-methyl-4,5,6,7-tetrahydrobenzothiophen-5-amine hydrochloride]: the minimal effective dose is over 3 mg/kg, the AD result is recorded as “ND (^ <4%)”, the AG result is given as “ND (^ <4%)” and the AN entry was “ND (^ <4%)”. Moreover, the AP entry is listed as “ND (^ <4%)”, the AX entry is “ND (^ <4%)”, the CE result was “ND (^ <4%)” and the HL result was “ND (^ <4%)”. Moreover, the MS result was “ND (^ <4%)”, the PS entry is recorded as “ND (^ <4%)”, the SH result is on record as “ND (^ <4%)” and the UK result is recorded as “+ (≥4%)”.

`NC1COc2c(Cl)csc2C1` (stereo not drawn) [Compound 215, 3-chloro-6,7-dihydro-5H-thieno[3,2-b]pyran-6-amine hydrochloride]: the minimal effective dose turned out to be 3 mg/kg, the AD result was “ND (^ <4%)”, the AG result was “ND (^ <4%)” and the AN entry is “ND (^ <4%)”. Besides, the AP entry was “+ (≥4%)”, the AX entry is given as “+++ (≥49%)”, the CE entry is recorded as “ND (^ <4%)” and the HL entry is reported as “ND (^ <4%)”. Also, the MS result is recorded as “ND (^ <4%)”, the PS entry is “ND (^ <4%)”, the SH entry was “ND (^ <4%)” and the UK entry is given as “ND (^ <4%)”.

In the case of `NC1CCc2sc(Cl)cc2C1` (stereo not drawn) [Compound 216, 2-chloro-4,5,6,7-tetrahydrobenzothiophen-5-amine hydrochloride], the minimal effective dose was over 3 mg/kg, the AD entry was “ND (^ <4%)”, the AG entry is “ND (^ <4%)” and the AN entry is “ND (^ <4%)”. The AP result was “ND (^ <4%)”, the AX result was “++ (≥24%)”, the CE entry is “ND (^ <4%)” and the HL result is “ND (^ <4%)”. Moreover, the MS result is given as “ND (^ <4%)”, the PS entry is reported as “ND (^ <4%)”, the SH entry is given as “ND (^ <4%)” and the UK result is listed as “+ (≥4%)”.

On to `NC1CCc2c(Cl)csc2C1` (stereo not drawn) [Compound 217, 3-chloro-4,5,6,7-tetrahydrobenzothiophen-6-amine hydrochloride], for which the minimal effective dose was under 3 mg/kg, the AD entry is given as “ND (^ <4%)”, the AG entry is on record as “ND (^ <4%)” and the AN entry is reported as “ND (^ <4%)”. Further, the AP entry is recorded as “+ (≥4%)”, the AX result is reported as “++ (≥24%)”, the CE entry is recorded as “ND (^ <4%)” and the HL result is “+ (≥4%)”. The MS entry was “ND (^ <4%)”, the PS entry is on record as “++ (≥24%)”, the SH entry was “ND (^ <4%)” and the UK entry is “+ (≥4%)”.

On to `NC1CCc2sc(Cl)c(Cl)c2C1` (stereo not drawn) [Compound 219, 2,3-dichloro-4,5,6,7-tetrahydrobenzothiophen-5-amine hydrochloride], for which the minimal effective dose is over 3 mg/kg, the AD result was “ND (^ <4%)”, the AG result is “ND (^ <4%)” and the AN result was “ND (^ <4%)”. The AP entry is on record as “ND (^ <4%)”, the AX result is “ND (^ <4%)”, the CE entry is “ND (^ <4%)” and the HL entry is “ND (^ <4%)”. The MS entry is given as “ND (^ <4%)”, the PS entry was “ND (^ <4%)”, the SH result was “ND (^ <4%)” and the UK entry was “++ (≥24%)”.

With `CNC1CCc2sc(Cl)c(Cl)c2C1` (stereo not drawn) [Compound 220, 2,3-dichloro-N-methyl-4,5,6,7-tetrahydrobenzothiophen-5-amine hydrochloride], the minimal effective dose is over 3 mg/kg, the AD entry is given as “ND (^ <4%)”, the AG result is “ND (^ <4%)” and the AN result is reported as “ND (^ <4%)”. In addition, the AP entry is reported as “ND (^ <4%)”, the AX result is given as “ND (^ <4%)”, the CE entry is listed as “ND (^ <4%)” and the HL entry is listed as “ND (^ <4%)”. The MS result is “ND (^ <4%)”, the PS result is “ND (^ <4%)”, the SH entry was “ND (^ <4%)” and the UK entry was “++ (≥24%)”.

`NC1COc2c(C(F)(F)F)csc2C1` (stereo not drawn) [Compound 221, 3-(trifluoromethyl)-6,7-dihydro-5H-thieno[3,2-b]pyran-6-amine hydrochloride]: the minimal effective dose is 3 mg/kg, the AD entry is listed as “ND (^ <4%)”, the AG entry is listed as “ND (^ <4%)” and the AN entry was “+ (≥4%)”. Besides, the AP entry was “ND (^ <4%)”, the AX entry is reported as “++ (≥24%)”, the CE entry was “ND (^ <4%)” and the HL entry is “+ (≥4%)”. Further, the MS entry is listed as “ND (^ <4%)”, the PS result is on record as “ND (^ <4%)”, the SH result is listed as “ND (^ <4%)” and the UK entry is recorded as “++ (≥24%)”.
